Source: paper PMC3769973 (Organic & biomolecular chemistry, 2011)
pIC50: −log10 of the molar value.

Columns and labels:
proteasome β5 subunit = proteasome β5 subunit (Homo sapiens, UniProt P28074); test: Competition assay versus MVB003 in HEK293T lysate, β5 band; assay type: biochemical
proteasome β1 subunit [1] = biological target: T1, proteasome β1 subunit (Homo sapiens, UniProt P28072); test: Competition assay versus MVB003 in HEK293T lysate, β1 band; assay type: biochemical
proteasome β2 subunit = proteasome β2 subunit (Homo sapiens, UniProt Q99436); test: Competition assay versus MVB003 in HEK293T lysate, β2 band; assay type: biochemical
[2] = tested on: proteasome in living HEK cells
proteasome β1 subunit [3] = biological target: T1, proteasome β1 subunit; test: Competition assay versus MVB003 in living HEK cells, β1 band; assay type: cell-based; details: inhibitor 4 h

## CC(C)C[C@H](NC(=O)[C@@H](NC(=O)N[C@H](C(=O)OC(C)(C)C)C(C)C)C(C)C)C(=O)N[C@@H](CC(C)C)C(=O)[C@@]1(C)CO1 [Compound 13, tBuO-Val-urea-Val-Leu2-EK]
Proteasome β5 subunit
  pIC50: 7.80
Proteasome β5 subunit; HEK lysate, Fig. 7
  Fold lower concentration for β5 inhibition compared to SylA: about 100 fold
Proteasome β5 subunit; HEK lysate, at 100 nM inhibitor, Fig. 7
  Inhibition of β5 in HEK lysate: fully inhibits
Proteasome β1 subunit [1]
  pIC50: 5.89
Proteasome β2 subunit
  pIC50: 6.16
[2]
  Cell permeability: cell permeable

## CC(C)C[C@H](NC(=O)[C@@H](NC(=O)N[C@H](C(=O)O)C(C)C)C(C)C)C(=O)[C@@]1(C)CO1 [Compound 6, HO-Val-urea-Val-Leu-EK]
Proteasome β5 subunit
  pIC50: < 4.30
Proteasome β1 subunit [1]
  pIC50: 5.85
Proteasome β2 subunit
  pIC50: < 4.30

## CCCCCCCCCCNC(=O)N[C@H](C(=O)N[C@@H](CC(C)C)C(=O)N[C@@H](CC(C)C)C(=O)[C@@]1(C)CO1)C(C)C [Compound 16, Decyl-urea-Val-Leu2-EK]
Proteasome β1 subunit [1]
  pIC50: < 4.30
Proteasome β2 subunit
  pIC50: < 4.30

## CC(C)C[C@H](NC(=O)[C@@H](NC(=O)N[C@H](C(=O)O)C(C)C)C(C)C)C(=O)N[C@@H](CC(C)C)C(=O)[C@@]1(C)CO1 [Compound 14, HO-Val-urea-Val-Leu2-EK]
Proteasome β5 subunit
  pIC50: 6.32

## CC(C)C[C@H](NC(=O)[C@@H](NC(=O)N[C@H](C(=O)NCc1ccccc1)C(C)C)C(C)C)C(=O)N[C@@H](CC(C)C)C(=O)[C@@]1(C)CO1 [Compound 15, Benzylamide-Val-urea-Val-Leu2-EK]
Proteasome β5 subunit; HEK lysate, Fig. 7
  Fold lower concentration for β5 inhibition compared to SylA: about 100 fold
[2]
  Cell permeability: cell permeable

## CC(C)C[C@H](NC(=O)[C@@H](NC(=O)N[C@H](C(=O)OC(C)(C)C)C(C)C)C(C)C)C(=O)[C@@]1(C)CO1 [Compound 5, tBuO-Val-urea-Val-Leu-EK2]
Proteasome β5 subunit
  pIC50: ~4.30
Proteasome β1 subunit [1]
  pIC50: 6.34
Proteasome β2 subunit
  pIC50: < 4.30
Proteasome β1 subunit [3]
  Potency in living HEK cells relative to NC001: fivefold higher potency

## CC(C)C[C@H](NC(=O)[C@@H](NC(=O)N[C@H](C(=O)NCc1ccccc1)C(C)C)C(C)C)C(=O)[C@@]1(C)CO1 [Compound 7, Benzylamide-Val-urea-Val-Leu-EK]
Proteasome β5 subunit
  pIC50: 5.54
Proteasome β1 subunit [1]
  pIC50: 6.28
Proteasome β2 subunit
  pIC50: < 4.30
